From PubChem BioAssay (NCI)
Where “and” joins values, the source holds several entries; their conditions need not be identical. Equal values may be shown once.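 A five-concentration, 48-hour dose response in 96-well plates underlies each endpoint, interpolated linearly between surrounding concentrations. GI50 = concentration required for 50% inhibition of growth. The concentration for full growth arrest is given as TGI.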

Legend:
Assay in all cases: NCI tumour cell line growth inhibition, 48 h
NCI-H522 lung = tested on: NCI-H522 lung
OVCAR-3 ovarian = tested on: OVCAR-3 ovarian
NCI-H460 lung = tested on: NCI-H460 lung
IGROV1 ovarian = tested on: IGROV1 ovarian
SF-268 CNS = tested on: SF-268 CNS
MDA-MB-435 = tested on: MDA-MB-435
CCRF-CEM leukemia = tested on: CCRF-CEM leukemia
K-562 leukemia = tested on: K-562 leukemia

SMILES	TGI (NCI-H522 lung)	TGI (OVCAR-3 ovarian)	GI50 (NCI-H460 lung)	TGI (NCI-H460 lung)	GI50 (IGROV1 ovarian)	TGI (IGROV1 ovarian)	TGI (SF-268 CNS)	GI50 (MDA-MB-435)	TGI (MDA-MB-435)	GI50 (CCRF-CEM leukemia)	TGI (CCRF-CEM leukemia)	GI50 (K-562 leukemia)	TGI (K-562 leukemia)	GI50 (NCI-H522 lung)	GI50 (OVCAR-3 ovarian)	GI50 (SF-268 CNS)
CN1CCN(C2CCN(C(=O)Nc3cc(Oc4ccc(NC(=O)C5(C(=O)Nc6ccc(F)cc6)CC5)c(F)c4)ccn3)CC2)CC1	> 2.66 µM	> 3.02 µM	1.44 µM	> 10 µM	1.1 µM	> 10 µM	> 2.96 µM	0.918 µM	> 3.27 µM	1.26 µM	> 5.7 µM	0.514 µM	> 2.53 µM			
CCN1CCN(C(=O)[C@@]2(C)CC[C@]3(C)CC[C@]4(C)C(=CC(=O)[C@@H]5[C@@]6(C)CC[C@H](OC7C[C@@H](O)[C@@H](O)C(C)O7)C(C)(C)[C@@H]6CC[C@]54C)[C@@H]3C2)CC1 (stereo partly drawn)	6.15 µM	16.7 µM	0.948 µM	1.86 µM	1.68 µM	6.39 µM	6.18 µM	2.26 µM	8.19 µM	1.52 µM	50 µM	1.08 µM	2.66 µM	1.59 µM	8.75 µM	1.6 µM
CC/C=C\C[C@H](O)C/C=C1/C(=O)C(Cl)=C[C@@H]1C/C=C\CCCC(=O)OC	0.592 µM	1.88 µM	0.558 µM	2.22 µM	0.867 µM	3.35 µM	2.34 µM	0.404 µM	1.22 µM	0.412 µM	1.73 µM	0.269 µM	16.7 µM	0.271 µM	0.525 µM	0.505 µM
CC1(C)S[C@@H]2[C@H](NC(=O)C3(N)CCCCC3)C(=O)N2[C@H]1C(=O)O	> 100 µM	> 100 µM		> 100 µM		> 100 µM	> 100 µM		> 100 µM		> 100 µM		> 100 µM			
C[N+](C)(C)CC1CCCc2ccccc2C1=O (stereo not drawn)	3.23 µM and 2.36 µM	17.7 µM		49.4 µM		31.7 µM	53.9 µM		11 µM	0.42 µM	5.77 µM and 1.11 µM	0.303 µM	6.72 µM and 1.02 µM	0.861 µM		
Oc1ccc(Nc2ncnc3c2sc2ncccc23)cc1	> 100 µM	> 100 µM	< 0.01 µM	> 100 µM	> 23.8 µM	> 100 µM	> 100 µM	0.0403 µM	> 100 µM	0.0307 µM	> 100 µM	0.36 µM	> 100 µM	0.0369 µM	0.397 µM	0.0407 µM
Cn1c(I)c(C#CCO[Si](C)(C)C(C)(C)C)c(=O)[nH]c1=O	3.95 µM	16.2 µM	53.8 µM	> 100 µM	17.2 µM	32.7 µM	30.2 µM	13.9 µM	27.8 µM	1.92 µM	4.17 µM	2.06 µM	4.36 µM	1.8 µM	6.49 µM	15.9 µM
O=C(/C=C/c1ccccc1)CCC1C(=O)c2ccccc2C1=O	> 100 µM	> 100 µM		> 100 µM		> 100 µM	> 100 µM		> 100 µM		> 100 µM		> 100 µM			
COc1ccc(Sc2[nH]c(C(C)=O)c3ccccc23)cc1	36.1 µM	24.6 µM	7.41 µM	20.6 µM	11.8 µM	43 µM	27.1 µM	2.76 µM	13 µM	14.3 µM	40 µM	2.65 µM	14.7 µM	10.2 µM	12.2 µM	12.9 µM
O=C(Nc1ccc(Br)cc1F)c1cc(F)ccc1O	4.47 µM	6.64 µM	0.491 µM	9.75 µM	0.37 µM	> 100 µM	10.1 µM	0.539 µM	4.41 µM	2.4 µM	13.9 µM	0.445 µM	> 100 µM	0.319 µM	0.411 µM	0.558 µM
CNCc1ccccc1-c1csc([C@@H](C)Nc2nc(C)nc3cc(OC)c(OC)cc23)c1	3.64 µM	8.04 µM	2.03 µM	4.16 µM	1.4 µM	5.23 µM	12.4 µM	1.75 µM	3.2 µM	2.26 µM	5.3 µM	0.168 µM	1.57 µM	1.54 µM	2.42 µM	2.66 µM
C/C=C(\C)C(=O)O[C@H]1C=CC(=O)O[C@H]1CCC(=O)[C@H](C)O	33.7 µM	22.3 µM	19.2 µM	43.2 µM	22 µM	46.8 µM	26.1 µM	11.8 µM	27.3 µM	0.014 µM	9.1 µM	4.92 µM	22.2 µM	13.5 µM	9.58 µM	11.3 µM
COc1cc(-c2oc(=O)ccc2C#Cc2ccccn2)cc(OC)c1OC		2.76 µM	2.6 µM	> 54.2 µM			> 100 µM	0.171 µM	0.932 µM	2.14 µM	> 30 µM	0.646 µM	> 100 µM		0.733 µM	5.56 µM
CCN(CC)CCC(CNc1ccnc2cc(Cl)ccc12)c1ccc(Cl)cc1 (stereo not drawn)	2.19 µM	5.98 µM	2.03 µM	11.1 µM	2.27 µM	7.33 µM	4.61 µM	0.402 µM	1.65 µM	1.27 µM	6.29 µM	0.312 µM	1.16 µM	0.608 µM	1.96 µM	1.97 µM
CSc1nc(=O)n(CCC#N)nc1SC	61.8 µM	32 µM		> 100 µM		> 100 µM	53.1 µM		> 100 µM				71.1 µM			
COc1cc(Nc2ncccc2C(=O)NCc2cn(Cc3cccc(Oc4ccccc4)c3)nn2)cc(OC)c1	> 100 µM	> 100 µM	3.98 µM	> 100 µM	> 100 µM	> 100 µM	> 100 µM	2.23 µM	5.43 µM	4.19 µM	> 100 µM	5.05 µM	> 100 µM	3.31 µM	3.69 µM	5.43 µM
N#Cc1c(NC(=O)NCc2ccccc2)sc2c1CCCCC2	25.3 µM	1.61 µM	0.352 µM	> 31.7 µM	0.719 µM	> 100 µM	> 100 µM	0.22 µM	0.564 µM	0.357 µM	> 100 µM	0.371 µM	> 100 µM	0.601 µM	0.346 µM	1.52 µM
CCCCC#CC1=C(Br)C(=O)OC1	5.08 µM	2.27 µM	14 µM	38.8 µM	0.368 µM	3.33 µM	10.2 µM	2.17 µM	5.54 µM	0.261 µM		0.279 µM	> 100 µM	2.27 µM	0.453 µM	2.47 µM

SMILES	TGI (NCI-H522 lung)	TGI (OVCAR-3 ovarian)	GI50 (NCI-H460 lung)	TGI (NCI-H460 lung)	GI50 (IGROV1 ovarian)	TGI (IGROV1 ovarian)	TGI (SF-268 CNS)	GI50 (MDA-MB-435)	TGI (MDA-MB-435)	GI50 (CCRF-CEM leukemia)	TGI (CCRF-CEM leukemia)	GI50 (K-562 leukemia)	TGI (K-562 leukemia)	GI50 (NCI-H522 lung)	GI50 (OVCAR-3 ovarian)	GI50 (SF-268 CNS)
COc1cccc(C2CC(C)(O)Oc3cc4c(cc32)OCO4)c1O (stereo not drawn)	53.5 µM	42.2 µM		> 92.7 µM		> 100 µM	> 91.2 µM		9.77 µM		> 95.9 µM		> 53.6 µM			
CC1=C(C(=O)Nc2ccc(F)c(Cl)c2)C(c2ccccc2O)NC(=S)N1 (stereo not drawn)	> 50 µM	42.6 µM	21.4 µM	> 50 µM	> 50 µM	> 50 µM	> 50 µM	32.2 µM	> 50 µM			22 µM	> 50 µM	> 50 µM	12.6 µM	9.43 µM
CCOC(=O)C1=CN(C)C=C(C(=O)OCC)C1c1cc(Br)c(OCC)c(OC)c1	> 100 µM	> 100 µM	43.5 µM	> 100 µM	> 100 µM	> 100 µM	> 100 µM	> 100 µM	> 100 µM	> 100 µM	> 100 µM	> 100 µM	> 100 µM	> 100 µM	48 µM	> 100 µM
CC1(C)N=C(N)N=C(N)N1c1ccc(CCCCc2ccc(Cl)cc2S(=O)(=O)F)c(Cl)c1	13.4 µM	12.2 µM	0.117 µM	13.5 µM	0.192 µM	21 µM	17.7 µM	0.474 µM	16.1 µM	0.372 µM	8.16 µM	0.073 µM	13.8 µM	0.53 µM	0.762 µM	0.493 µM
NC(=O)/C=C/C(=O)c1c(Cl)cccc1Cl	0.432 µM	1.72 µM	1.82 µM	3.49 µM	1.39 µM	2.8 µM	3.21 µM	1.3 µM	3.48 µM			0.653 µM	5.83 µM	0.204 µM	0.533 µM	1.71 µM
N#Cc1c(N)nc(N2CCOCC2)c(C#N)c1-c1ccncc1	> 100 µM	> 100 µM	98.1 µM	> 100 µM	12.3 µM	39.5 µM	> 100 µM	> 100 µM	> 100 µM	> 100 µM	> 100 µM	> 100 µM	> 100 µM	22.7 µM	36.4 µM	> 100 µM
COC(=O)COc1ccccc1/C=C1\N=C(c2ccccc2)N(c2cc(C(F)(F)F)ccc2Cl)C1=O	> 100 µM	98.6 µM	59.6 µM	> 100 µM	57 µM	> 100 µM	> 100 µM	33.1 µM	> 100 µM	27.6 µM	74.4 µM	33.8 µM	> 100 µM	38.2 µM	34 µM	29.8 µM
Cc1ccc(SC2c3ccc(C)cc3Oc3nc(N)c(C#N)c(N)c32)cc1 (stereo not drawn)	3.11 µM	3.22 µM	1.94 µM	4.07 µM			4.06 µM	1.81 µM	3.4 µM	2.18 µM	6.77 µM	2.79 µM	12.4 µM	1.67 µM	1.77 µM	1.83 µM
CC1(C)CC(=O)C(C=NC(=S)c2ccccc2)=C(O)C1	> 100 µM	> 100 µM		> 100 µM		> 100 µM	> 100 µM		> 100 µM		> 100 µM					
C(=NCCN1CCOCC1)=NC1CCCCC1	> 100 µM	> 100 µM		> 100 µM		> 100 µM	> 100 µM		> 100 µM				> 100 µM			
Cc1ccc(S(=O)(=O)Nc2ccccc2C=O)cc1	82.1 µM	60.1 µM		47 µM		38.3 µM			34.9 µM				60.8 µM			
NC(N)=N/N=C/c1c(-c2ccsc2)nc2sccn12	30.5 µM	21.2 µM	14.8 µM	28 µM			29.4 µM	14.6 µM	27.7 µM	1.48 µM	6.07 µM	13.1 µM	29.9 µM	12.2 µM	8.8 µM	15.3 µM
C#CCOc1cccc(-c2ncc3cc(NC(=O)CCl)ccc3n2)c1	2.51 µM	3.79 µM	2.16 µM	4.83 µM	1.8 µM	4.01 µM	5.25 µM			0.252 µM	0.994 µM	0.561 µM	> 100 µM	1.16 µM	1.93 µM	2.03 µM
Cc1cc(Nc2ccc(NC(=O)c3ccc(Nc4ccnc5ccccc45)cc3)cc2)nc(N)n1		4.26 µM			15 µM	63.5 µM		2.93 µM	> 100 µM						1.43 µM	
CC(C)C1=CC23CCC4C(C)(C(=O)O)CCCC4(C)C2CC1C1C(=O)N(c2ccc(Cc4ccc(N5C(=O)C6C7CC8C9(C)CCCC(C)(C(=O)O)C9CCC8(C=C7C(C)C)C6C5=O)cc4)cc2)C(=O)C13 (stereo not drawn)	24.1 µM	22.6 µM					27.4 µM		13.3 µM		38.5 µM		> 100 µM			
CO/N=C(/C)c1cccc(Nc2cc(-n3nnc4ccccc43)nc3ccccc23)c1	> 100 µM		28 µM	> 100 µM	> 100 µM	> 100 µM	> 100 µM	14.8 µM	39.4 µM	20.7 µM	> 100 µM	15.2 µM	> 100 µM	> 100 µM		30.5 µM
COC(=O)C1c2cc3c(cc2C(OC2OC(C)C(OC)C(C)(OC)C2OC)CC1(C)O)C(=O)c1c(O)cc2c(c1C3=O)OC1OC2(C)C(O)C([N+](C)(C)[O-])C1O (stereo not drawn)	0.809 µM	> 32.3 µM				4.22 µM	> 21.4 µM				0.921 µM					
